Results reported in PubChem BioAssay AID248 (DTP/NCI, 2004).
Several values for one entry are separate records, joined by “and”; a condition that tells them apart may be missing. Equal entries are not always repeated. Inconclusive results and toxic doses are left out. Cut-off read from the data, not from the text of the source: active = T/C of 150% or more; inactive = T/C below 125%.

Tested on: L1210 leukemia ip in BDF1 mice, survival T/C
Assay: NCI In Vivo Anticancer Drug Screen. Data for tumor model L1210 Leukemia (intraperitoneal) in B6D2F1 (BDF1) mice
Settings: endpoint: mean survival time, higher = longer survival
In short: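 Tumor cells were implanted, animals were treated, and survival was followed. The result divides the treated measurement by the vehicle-control measurement.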

[1] = dose: 100.0 mg/kg/injection, schedule: Q04DX003 (ip), vehicle: Klucel (hydroxypropylcellulose) (HPC)
[2] = dose: 200.0 mg/kg/injection, schedule: Q04DX003 (ip), vehicle: Klucel (hydroxypropylcellulose) (HPC)
[3] = dose: 400.0 mg/kg/injection, schedule: Q04DX003 (ip), vehicle: Klucel (hydroxypropylcellulose) (HPC)
[4] = dose: 100.0 mg/kg/injection, schedule: Q01DX009 (ip), vehicle: saline with Tween-80
[5] = dose: 100.0 mg/kg/injection, schedule: Q04DX003 (ip), vehicle: saline with Tween-80
[6] = dose: 200.0 mg/kg/injection, schedule: Q01DX009 (ip), vehicle: saline with Tween-80
[7] = dose: 200.0 mg/kg/injection, schedule: Q04DX003 (ip), vehicle: saline with Tween-80
[8] = dose: 400.0 mg/kg/injection, schedule: Q01DX009 (ip), vehicle: saline with Tween-80
[9] = dose: 400.0 mg/kg/injection, schedule: Q04DX003 (ip), vehicle: saline with Tween-80
[10] = dose: 100.0 mg/kg/injection, schedule: Q01DX001 (ip), vehicle: carboxymethylcellulose (CMC)
[11] = dose: 200.0 mg/kg/injection, schedule: Q01DX001 (ip), vehicle: carboxymethylcellulose (CMC)
[12] = dose: 400.0 mg/kg/injection, schedule: Q01DX001 (ip), vehicle: carboxymethylcellulose (CMC)
[13] = dose: 100.0 mg/kg/injection, schedule: Q04DX002 (ip), vehicle: Klucel (hydroxypropylcellulose) (HPC)
[14] = dose: 200.0 mg/kg/injection, schedule: Q04DX002 (ip), vehicle: Klucel (hydroxypropylcellulose) (HPC)
[15] = dose: 400.0 mg/kg/injection, schedule: Q04DX002 (ip), vehicle: Klucel (hydroxypropylcellulose) (HPC)
[16] = dose: 100.0 mg/kg/injection, schedule: Q01DX001 (ip), vehicle: saline
[17] = dose: 200.0 mg/kg/injection, schedule: Q01DX001 (ip), vehicle: saline
[18] = dose: 400.0 mg/kg/injection, schedule: Q01DX001 (ip), vehicle: saline
[19] = dose: 100.0 mg/kg/injection, schedule: Q04DX003 (ip), vehicle: saline
[20] = dose: 200.0 mg/kg/injection, schedule: Q04DX003 (ip), vehicle: saline
[21] = dose: 50.0 mg/kg/injection, schedule: Q04DX003 (ip), vehicle: saline

Measured: T/C

O=Nc1[nH]c(O)c2ccccc12
inactive: [1] 97 % of control and 91 % of control | [2] 99 % of control and 103 % of control | [3] 103 % of control and 89 % of control

O=C1OC(=O)C2C3CC(C(Br)C3C(F)(Br)Br)C12 (stereo not given)
inactive: [4] 87 % of control | [5] 115 % of control | [6] 93 % of control | [7] 98 % of control | [8] 90 % of control | [9] 91 % of control

[N-]=[N+]=NC(=O)C1C2CC3C(C2)C31 (stereo not given)
inactive: [10] 95 % of control | [11] 88 % of control

O=C(O)c1ccc(/C=N/Nc2nnc(N/N=C/c3ccc(C(=O)O)cc3)c3ccccc23)cc1
inactive: dose: 50.0 mg/kg/injection, schedule: Q01DX001 (ip), vehicle: carboxymethylcellulose (CMC) 113 % of control | [10] 113 % of control | [11] 107 % of control | [12] 104 % of control

O=CNc1ccc(O)cc1
inactive: [4] 104 % of control | [6] 108 % of control | [8] 114 % of control

C/C=C/c1ccc2ccccc2c1
inactive: [10] 104 % of control | [11] 96 % of control | [12] 104 % of control

COC(=O)C(N)=O
inactive: dose: 100.0 mg/kg/injection, schedule: Q01DX001 (ip), vehicle: steriod suspending solution 115 % of control | [13] 100 % of control | dose: 200.0 mg/kg/injection, schedule: Q01DX001 (ip), vehicle: steriod suspending solution 121 % of control | [14] 106 % of control | dose: 400.0 mg/kg/injection, schedule: Q01DX001 (ip), vehicle: steriod suspending solution 106 % of control | [15] 106 % of control

CC(C)(C)C1CCCCC1O (stereo not given)
inactive: [16] 92 % of control | [17] 97 % of control | [18] 92 % of control

O=C(Nc1cccc(F)c1)OCc1ccco1
inactive: dose: 100.0 mg/kg/injection, schedule: Q01DX009 (sc), vehicle: olive oil, sesame oil, peanut oil 95 % of control | dose: 200.0 mg/kg/injection, schedule: Q01DX009 (sc), vehicle: olive oil, sesame oil, peanut oil 96 % of control | dose: 400.0 mg/kg/injection, schedule: Q01DX009 (sc), vehicle: olive oil, sesame oil, peanut oil 95 % of control

CCC(C)(C=O)C(C)=O (stereo not given)
inactive: [19] 98 % of control | [20] 96 % of control | dose: 400.0 mg/kg/injection, schedule: Q04DX003 (ip), vehicle: saline 88 % of control

O=[N+]([O-])c1ccc(NCCO)c([N+](=O)[O-])c1
inactive: [4] 98 % of control | [5] 88 % of control | [6] 106 % of control | [7] 97 % of control | [9] 88 % of control

CCC1(O)C(=O)OCc2c1ccnc2Cl (stereo not given)
inactive: [21] 105 % of control | [19] 116 % of control | [20] 103 % of control

CC1CN=C(c2ccc(NC(=O)Nc3ccc(C4=NCC(C)N4)cc3)cc2)N1 (stereo not given)
inactive: dose: 0.62 mg/kg/injection, schedule: Q01DX Z (ip), vehicle: saline 109 % of control | dose: 1.25 mg/kg/injection, schedule: Q01DX Z (ip), vehicle: saline 114 % of control | dose: 2.5 mg/kg/injection, schedule: Q01DX Z (ip), vehicle: saline 118 % of control | dose: 5.0 mg/kg/injection, schedule: Q01DX Z (ip), vehicle: saline 111 % of control

COC(=O)C1C2C=CC(CC2)C1(C)C(=O)OC (stereo not given)
inactive: [5] 95 % of control | [7] 101 % of control | [9] 90 % of control

CN(C)c1ccc(/C=N\NC(=S)Nc2ccccc2)c(Cl)c1
inactive: dose: 12.5 mg/kg/injection, schedule: Q01DX009 (ip), vehicle: saline with Tween-80 89 % of control | dose: 12.5 mg/kg/injection, schedule: Q04DX003 (ip), vehicle: saline 98 % of control | dose: 25.0 mg/kg/injection, schedule: Q01DX009 (ip), vehicle: saline with Tween-80 91 % of control | dose: 25.0 mg/kg/injection, schedule: Q04DX003 (ip), vehicle: saline 102 % of control | dose: 50.0 mg/kg/injection, schedule: Q01DX009 (ip), vehicle: saline with Tween-80 97 % of control | [21] 95 % of control | dose: 75.0 mg/kg/injection, schedule: Q01DX009 (ip), vehicle: saline with Tween-80 101 % of control | [16] 87 % of control | dose: 115.0 mg/kg/injection, schedule: Q01DX009 (ip), vehicle: saline with Tween-80 98 % of control | dose: 170.0 mg/kg/injection, schedule: Q01DX009 (ip), vehicle: saline with Tween-80 92 % of control | [17] 95 % of control | [18] 92 % of control

O=C(CCN1CC1)NCCCCCCNC(=O)CCN1CC1
inactive: [1] 92 % of control | [2] 90 % of control | [3] 86 % of control

O=S(=O)(c1ccccc1)n1c(C(O)c2cccnc2)cc2ccccc21 (stereo not given)
inactive: dose: 100.0 mg/kg/injection, schedule: Q04DX002 (ip), vehicle: saline with Tween-80 93 % of control | dose: 200.0 mg/kg/injection, schedule: Q04DX002 (ip), vehicle: saline with Tween-80 100 % of control | dose: 400.0 mg/kg/injection, schedule: Q04DX002 (ip), vehicle: saline with Tween-80 90 % of control

O=C(Nc1cc(Cl)ccc1O)Nc1cc(C(F)(F)F)ccc1Cl
inactive: [10] 101 % of control | dose: 100.0 mg/kg/injection, schedule: Q01DX009 (ip), vehicle: carboxymethylcellulose (CMC) 95 % of control and 103 % of control | dose: 100.0 mg/kg/injection, schedule: Q04DX002 (ip), vehicle: carboxymethylcellulose (CMC) 97 % of control and 104 % of control | dose: 100.0 mg/kg/injection, schedule: Q04DX003 (ip), vehicle: carboxymethylcellulose (CMC) 97 % of control | [11] 97 % of control | dose: 200.0 mg/kg/injection, schedule: Q01DX009 (ip), vehicle: carboxymethylcellulose (CMC) 97 % of control and 103 % of control | dose: 200.0 mg/kg/injection, schedule: Q04DX002 (ip), vehicle: carboxymethylcellulose (CMC) 97 % of control and 104 % of control | dose: 200.0 mg/kg/injection, schedule: Q04DX003 (ip), vehicle: carboxymethylcellulose (CMC) 97 % of control | [12] 98 % of control | dose: 400.0 mg/kg/injection, schedule: Q01DX009 (ip), vehicle: carboxymethylcellulose (CMC) 92 % of control and 97 % of control | dose: 400.0 mg/kg/injection, schedule: Q04DX002 (ip), vehicle: carboxymethylcellulose (CMC) 98 % of control and 90 % of control | dose: 400.0 mg/kg/injection, schedule: Q04DX003 (ip), vehicle: carboxymethylcellulose (CMC) 100 % of control

CCCCCCC(O)CCCCCCCCCCC(=O)OC (stereo not given)
inactive: [4] 98 % of control | [6] 88 % of control | [8] 92 % of control

OCC1(c2ccccc2)OC1(c1ccccc1)c1ccccc1 (stereo not given)
inactive: dose: 6.25 mg/kg/injection, schedule: Q04DX002 (ip), vehicle: Klucel (hydroxypropylcellulose) (HPC) 86 % of control | dose: 12.5 mg/kg/injection, schedule: Q04DX002 (ip), vehicle: Klucel (hydroxypropylcellulose) (HPC) 101 % of control | dose: 25.0 mg/kg/injection, schedule: Q04DX002 (ip), vehicle: Klucel (hydroxypropylcellulose) (HPC) 99 % of control and 101 % of control

O=C(COc1ccc(Cl)cc1)Oc1c(Cl)c(Cl)c(Cl)c(Cl)c1Cl
inactive: [13] 97 % of control | [14] 115 % of control | [15] 104 % of control
